For four compounds, IC50 and inhibition results are on record in ChEMBL document CHEMBL1129185, “The design and synthesis of non-peptide ligands with affinity and selectivity for tachykinin receptors” (Bioorg Med Chem Lett, 1996).

For orientation: IC50 means the concentration needed to halve the response being measured. Read a low IC50 as greater potency in that assay. The term inhibition denotes the share of the control response that was lost under treatment. Higher therefore signals a strong effect.

One experiment concerns the target T1, Neuromedin-K receptor (Cavia porcellus, UniProt P30098).
T1 sequence (P30098 whole entry): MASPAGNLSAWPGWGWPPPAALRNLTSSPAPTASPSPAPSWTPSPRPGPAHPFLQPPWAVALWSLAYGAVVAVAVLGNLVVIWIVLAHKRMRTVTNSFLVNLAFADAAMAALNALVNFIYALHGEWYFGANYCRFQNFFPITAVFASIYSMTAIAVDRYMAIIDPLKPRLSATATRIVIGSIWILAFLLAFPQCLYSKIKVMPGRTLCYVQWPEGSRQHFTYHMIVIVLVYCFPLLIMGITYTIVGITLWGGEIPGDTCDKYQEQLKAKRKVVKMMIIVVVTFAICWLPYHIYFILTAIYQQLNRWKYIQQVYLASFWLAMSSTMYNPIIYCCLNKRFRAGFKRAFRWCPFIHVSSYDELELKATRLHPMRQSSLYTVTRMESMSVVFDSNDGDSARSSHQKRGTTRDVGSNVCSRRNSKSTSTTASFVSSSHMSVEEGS
Kind of experiment: Inhibitory activity against binding of [125I][MePhe7]-NKB SP to tachykinin NK-3 receptor in guinea pig cortical membranes. Type of experiment: cell membranes.

The target of experiment [1] is T2, Substance-P receptor (Homo sapiens, UniProt P25103). Kind of experiment: Inhibitory activity against binding of [125I]Bolton-Hunter SP to tachykinin NK-1 receptor in human lymphoma IM9 cells. Type of experiment: cell-based, IM-9.
T2 sequence (P25103 whole entry): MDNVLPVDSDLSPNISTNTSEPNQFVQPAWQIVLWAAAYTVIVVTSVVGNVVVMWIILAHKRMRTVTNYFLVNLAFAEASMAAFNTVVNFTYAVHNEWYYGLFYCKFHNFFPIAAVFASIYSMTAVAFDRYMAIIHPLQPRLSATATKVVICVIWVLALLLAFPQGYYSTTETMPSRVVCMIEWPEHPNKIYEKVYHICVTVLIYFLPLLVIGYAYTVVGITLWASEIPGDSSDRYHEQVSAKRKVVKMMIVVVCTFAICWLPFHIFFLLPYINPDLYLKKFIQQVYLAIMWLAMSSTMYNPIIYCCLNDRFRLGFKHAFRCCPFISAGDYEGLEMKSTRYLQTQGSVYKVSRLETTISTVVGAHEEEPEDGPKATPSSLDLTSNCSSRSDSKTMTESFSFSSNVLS
Experiment [2] addresses T3, Neuromedin-K receptor (Cavia porcellus) (UniProt P30098).
T3 sequence (whole entry): T1 sequence (P30098 whole entry)
Kind of experiment: Inhibitory activity against binding of [125I][MePhe7]-NKB SP to tachykinin NK-3 receptor in guinea pig cortical membranes at concentration 10 uM. Type of experiment: cell membranes.

The target of experiment [3] is T2, Substance-P receptor. Kind of experiment: Inhibitory activity against binding of [125I]Bolton-Hunter SP to tachykinin NK-1 receptor in human lymphoma IM9 cells. Type of experiment: cell-based, IM-9.
Experiment [4] deals with T2, Substance-P receptor. Description: Inhibitory activity against binding of [125I]Bolton-Hunter SP to tachykinin NK-1 receptor in human lymphoma IM9 cells at concentration 10 uM. Format: cell-based. Particulars: IM-9.

The structures appear in SMILES notation. Peptide text beside a SMILES is read from it.

`CSCC[C@H](NC(=O)[C@H](CC(C)C)NC(=O)CNC(=O)[C@H](Cc1ccccc1)NC(=O)[C@H](Cc1ccccc1)NC(=O)[C@H](CCC(N)=O)NC(=O)[C@H](CCC(N)=O)NC(=O)[C@@H]1CCCN1C(=O)[C@H](CCCCN)NC(=O)[C@@H]1CCCN1C(=O)[C@@H](N)CCCN=C(N)N)C(N)=O` [SUBSTANCE P] yielded a half-inhibitory concentration (IC50) at Neuromedin-K receptor of 0.717 µM. In turn, `NC(=O)[C@H](Cc1ccccc1)NC(=O)[C@H](Cc1c[nH]c2ccccc12)NC(=O)OCc1ccccc1` (HELM PEPTIDE1{[O=C(OCc1ccccc1)[*:2]].W.F.[am]}$$$$V2.0) yielded an IC50 on Substance-P receptor [1] of 4.2 µM. For the same compound, the inhibition in experiment [2] is less than 10%. Compound `O=C1C(Cc2c[nH]c3ccccc23)OCCN1Cc1ccccc1` (configuration not stated) displayed an inhibition in experiment [2] of less than 10%. Further, at Substance-P receptor [3], the IC50 was found to be 3.5 µM. With `O=C1C(Cc2ccccc2)OCCN1Cc1ccccc1` (configuration not stated), at Substance-P receptor [4], the inhibition is less than 10%. On Neuromedin-K receptor, the half-maximal inhibitory concentration (IC50) amounted to 4.09 µM.
